Drawing on US9040663B2, “Melanocortin receptor-specific peptides” (AstraZeneca AB, priority 2009, dated 2015), this text covers Ki, EC50 and Emax for seven compounds.

Structures are written as SMILES. Read-outs that look alike come from different tables or passages of the source.

Assay [1] addresses T1, hMC4-R (Homo sapiens (Human), UniProt P32245). Description: Competitive inhibition binding assay using [I125]-NDP-α-MSH, hMC4-R. As to conditions: membranes of HEK-293 cells expressing recombinant hMC4-R, read-out: MC4-R Ki.
Assay [2] concerns the target MC1-R. The assay can be described thus: Competitive inhibition binding assay using [I125]-NDP-α-MSH, MC1-R. Conditions: membranes of B-16 mouse melanoma cells (endogenous MC1-R), in some instances HEK-293 hMC1-R. The protocol:
7.1 Competitive Inhibition Assay using [I^125]-NDP-α-MSH.
A competitive inhibition binding assay was performed for exemplified peptides according to the invention using membrane homogenates prepared from HEK-293 cells that express recombinant hMC4-R, hMC3-R, or hMC5-R, and from B-16 mouse melanoma cells (containing endogenous MC1-R). In some instances, HEK-293 cells that express recombinant hMC1-R were employed. Assays were performed in 96 well GF/B Millipore multiscreen filtration plates (MAFB NOB10) pre-coated with 0.5% bovine serum albumin (Fraction V). Membrane homogenates were incubated with 0.2 nM (for hMC4-R) 0.4 nM (for MC3-R and MC5-R) or 0.1 nM (for mouse B16 MC1-R or hMC1-R) [I^125]-NDP-α-MSH (Perkin Elmer) and increasing concentrations of test peptides of the present invention in buffer containing 25 mM HEPES buffer (pH 7.5) with 100 mM NaCl, 2 mM CaCl2, 2 mM MgCl2, 0.3 mM 1,10-phenanthroline, and 0.2% bovine serum albumin. After incubation for 60 minutes at 37° C., the assay mixture was filtered and the membranes washed three times with ice-cold buffer. Filters were dried and counted in a gamma counter for bound radioactivity. […] Maximal specific binding (100%) was defined as the difference in radioactivity (cpm) bound to cell membranes in the absence and presence of 1 μM NDP-α-MSH. […] Each assay was conducted in triplicate and the actual mean values are described, with results less than 0% reported as 0%. Ki values for test peptides of the present invention were determined using Graph-Pad Prism® curve-fitting software.

In assay [3] the target is T1, hMC4-R. The assay can be described thus: High and low density hMC4-R functional assay (cAMP, HEK293-T-REx-MC4-R cells). Format: cell-based. As to conditions: for Emax: NDP-α-MSH = 100%, read-out: Intrinsic Activity (%).
The mark [4] stands for this setting: 0.1 ng/mL Doxycycline (low density hMC4-R system).
The mark [5] stands for this setting: 10 ng/mL Doxycycline (high density hMC4-R system).

T1 sequence (P32245 whole entry): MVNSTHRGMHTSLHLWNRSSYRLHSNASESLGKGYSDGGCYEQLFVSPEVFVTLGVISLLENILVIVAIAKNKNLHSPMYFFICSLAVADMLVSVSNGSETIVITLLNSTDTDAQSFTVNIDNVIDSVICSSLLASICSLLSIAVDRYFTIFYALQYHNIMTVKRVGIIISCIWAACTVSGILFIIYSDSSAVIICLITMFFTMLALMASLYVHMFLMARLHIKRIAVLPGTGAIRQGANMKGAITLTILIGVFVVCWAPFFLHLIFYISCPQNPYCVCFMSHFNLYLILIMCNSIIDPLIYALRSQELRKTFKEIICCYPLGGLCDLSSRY

Turning to `CC(=O)N[C@@H](CCCNC(=N)N)C(=O)N[C@H]1CCC(=O)NCCC[C@@H](C(N)=O)NC(=O)[C@H](Cc2c[nH]c3ccccc23)NC(=O)[C@H](CCCNC(=N)N)NC(=O)[C@@H](Cc2ccccc2Cl)NC(=O)[C@H]([C@@H](C)O)NC1=O` [Example 32, Ac-Arg-cyclo(Glu-Thr-D-Phe(2-Cl)-Arg-Trp-Orn)-NH2], the Ki came out at 11 nM in assay [1] and 540 nM in assay [2]. Besides, it took 18 nM to reach a half-maximal effect in assay [3] (setting [4]) (EC50). In addition, the Emax stood at 34% in assay [3] (setting [4]) and 96% in assay [3] (setting [5]).
Turning to `CC(=O)N[C@@H](CCCNC(=N)N)C(=O)N[C@H]1CCC(=O)NCCC[C@@H](C(N)=O)NC(=O)[C@H](Cc2c[nH]c3ccccc23)NC(=O)[C@H](CCCNC(=N)N)NC(=O)[C@@H](Cc2ccccc2Cl)NC(=O)[C@@H]2C[C@@H](O)CN2C1=O` [Example 33, Ac-Arg-cyclo(Glu-Hyp-D-Phe(2-Cl)-Arg-Trp-Orn)-NH2], the Ki in assay [1] stood at 1 nM; in assay [2], 143 nM. The EC50 in assay [3] (setting [4]) is 1 nM; in assay [3] (setting [5]), 0.153 nM. Also, the Emax was 41% in assay [3] (setting [4]) and 98% in assay [3] (setting [5]).
`CC(=O)N[C@@H](CCCNC(=N)N)C(=O)N[C@H]1CCC(=O)NCCC[C@@H](C(N)=O)NC(=O)[C@H](Cc2c[nH]c3ccccc23)NC(=O)[C@H](CCCNC(=N)N)NC(=O)[C@@H](Cc2ccccc2Cl)NC(=O)[C@H](CCC(N)=O)NC1=O` [Example 34, Ac-Arg-cyclo(Glu-Gln-D-Phe(2-Cl)-Arg-Trp-Orn)-NH2]: the Ki in assay [1] is 7 nM; in assay [2] it was 128 nM. In assay [3] (setting [4]), this compound displayed an EC50 of 1 nM. For the same compound, the Emax in assay [3] (setting [4]) worked out at 79%; in assay [3] (setting [5]) it was 97%.
For `CC(=O)N[C@@H](CCCNC(=N)N)C(=O)N[C@H]1CCC(=O)NCCC[C@@H](C(N)=O)NC(=O)[C@H](Cc2c[nH]c3ccccc23)NC(=O)[C@H](CCCNC(=N)N)NC(=O)[C@@H](Cc2cccc(Cl)c2)NC(=O)[C@H]([C@@H](C)O)NC1=O` [Example 36, Ac-Arg-cyclo(Glu-Thr-D-Phe(3-Cl)-Arg-Trp-Orn)-NH2], the Ki amounted to 6 nM in assay [1] and 380 nM in assay [2]. For the same compound, the Emax in assay [3] (setting [4]) was 8%; in assay [3] (setting [5]), 89%. The same compound returned a half-maximal effective concentration (EC50) in assay [3] (setting [5]) of 1 nM.
In the same order, the values of `CC(=O)N[C@@H](CCCNC(=N)N)C(=O)N[C@H]1CCC(=O)NCCC[C@@H](C(N)=O)NC(=O)[C@H](Cc2c[nH]c3ccccc23)NC(=O)[C@H](CCCNC(=N)N)NC(=O)[C@@H](Cc2cccc(Cl)c2)NC(=O)[C@@H]2C[C@@H](O)CN2C1=O` [Example 37, Ac-Arg-cyclo(Glu-Hyp-D-Phe(3-Cl)-Arg-Trp-Orn)-NH2] are 2 nM, 430 nM, 6%, 90% and 0.55 nM.
With `CC(=O)N[C@@H](CCCNC(=N)N)C(=O)N[C@H]1CCC(=O)NCCC[C@@H](C(N)=O)NC(=O)[C@H](Cc2c[nH]c3ccccc23)NC(=O)[C@H](CCCNC(=N)N)NC(=O)[C@@H](Cc2cccc(Cl)c2)NC(=O)[C@H](CCC(N)=O)NC1=O` [Example 38, Ac-Arg-cyclo(Glu-Gln-D-Phe(3-Cl)-Arg-Trp-Orn)-NH2], the Ki in assay [1] was 3 nM; in assay [2], 290 nM. In assay [3] (setting [4]), the EC50 is 2 nM. Besides, the Emax was found to be 31% in assay [3] (setting [4]) and 97% in assay [3] (setting [5]).
With `CC(=O)N[C@@H](CCCNC(=N)N)C(=O)N[C@H]1CCC(=O)NCCC[C@@H](C(N)=O)NC(=O)[C@H](Cc2c[nH]c3ccccc23)NC(=O)[C@H](CCCNC(=N)N)NC(=O)[C@@H](Cc2ccc(C#N)cc2)NC(=O)[C@@H]2CCCN2C1=O` [Example 39, Ac-Arg-cyclo(Glu-Pro-D-Phe(4-CN)-Arg-Trp-Orn)-NH2], the Ki in assay [1] was found to be 4 nM; in assay [2] it was 1550 nM. Further, the Emax in assay [3] (setting [4]) is 4%; in assay [3] (setting [5]) it was 79%. The compound further had an EC50 in assay [3] (setting [5]) of 1 nM.

As a reminder, the Ki is the dissociation constant of the complex between target and ligand, obtained from inhibition or displacement. Usually EC50 stands for the concentration giving half of the maximal effect.
